The record followed here is ChEMBL document CHEMBL4673288, “Structure-activity relationship of novel acridone derivatives as antiproliferative agents” (Bioorg Med Chem, 2021).

The test system of one test is SW480. Kind of test: Antiproliferative activity against human SW480 cells assessed as reduction in cell viability incubated for 72 hrs by SRB assay. The test is classed as functional, cell-based. The note with it: SW480, 72 h. (In SRB staining, fixed cells bind dye roughly in proportion to their protein.)
The next test has as its system HeLa. Kind of test: Antiproliferative activity against human HeLa cells assessed as reduction in cell viability incubated for 72 hrs by SRB assay. The format is functional, cell-based.
A further test relates to HCT-116. In words: Antiproliferative activity against human HCT-116 cells assessed as reduction in cell viability incubated for 72 hrs by SRB assay. The test is classed as functional, cell-based. The note with it: HCT-116, 72 h.
The target of test [1] is DNA topoisomerase 2-alpha (Homo sapiens) (UniProt P11388). Kind of test: Inhibition of recombinant human topoisomerase 2 alpha-mediated relaxation of supercoiled pBR322 DNA at 200 uM incubated for 30 mins by ethidium bromide staining based agarose gel electrophoresis method.
Chain of DNA topoisomerase 2-alpha (Homo sapiens) (P11388 whole entry): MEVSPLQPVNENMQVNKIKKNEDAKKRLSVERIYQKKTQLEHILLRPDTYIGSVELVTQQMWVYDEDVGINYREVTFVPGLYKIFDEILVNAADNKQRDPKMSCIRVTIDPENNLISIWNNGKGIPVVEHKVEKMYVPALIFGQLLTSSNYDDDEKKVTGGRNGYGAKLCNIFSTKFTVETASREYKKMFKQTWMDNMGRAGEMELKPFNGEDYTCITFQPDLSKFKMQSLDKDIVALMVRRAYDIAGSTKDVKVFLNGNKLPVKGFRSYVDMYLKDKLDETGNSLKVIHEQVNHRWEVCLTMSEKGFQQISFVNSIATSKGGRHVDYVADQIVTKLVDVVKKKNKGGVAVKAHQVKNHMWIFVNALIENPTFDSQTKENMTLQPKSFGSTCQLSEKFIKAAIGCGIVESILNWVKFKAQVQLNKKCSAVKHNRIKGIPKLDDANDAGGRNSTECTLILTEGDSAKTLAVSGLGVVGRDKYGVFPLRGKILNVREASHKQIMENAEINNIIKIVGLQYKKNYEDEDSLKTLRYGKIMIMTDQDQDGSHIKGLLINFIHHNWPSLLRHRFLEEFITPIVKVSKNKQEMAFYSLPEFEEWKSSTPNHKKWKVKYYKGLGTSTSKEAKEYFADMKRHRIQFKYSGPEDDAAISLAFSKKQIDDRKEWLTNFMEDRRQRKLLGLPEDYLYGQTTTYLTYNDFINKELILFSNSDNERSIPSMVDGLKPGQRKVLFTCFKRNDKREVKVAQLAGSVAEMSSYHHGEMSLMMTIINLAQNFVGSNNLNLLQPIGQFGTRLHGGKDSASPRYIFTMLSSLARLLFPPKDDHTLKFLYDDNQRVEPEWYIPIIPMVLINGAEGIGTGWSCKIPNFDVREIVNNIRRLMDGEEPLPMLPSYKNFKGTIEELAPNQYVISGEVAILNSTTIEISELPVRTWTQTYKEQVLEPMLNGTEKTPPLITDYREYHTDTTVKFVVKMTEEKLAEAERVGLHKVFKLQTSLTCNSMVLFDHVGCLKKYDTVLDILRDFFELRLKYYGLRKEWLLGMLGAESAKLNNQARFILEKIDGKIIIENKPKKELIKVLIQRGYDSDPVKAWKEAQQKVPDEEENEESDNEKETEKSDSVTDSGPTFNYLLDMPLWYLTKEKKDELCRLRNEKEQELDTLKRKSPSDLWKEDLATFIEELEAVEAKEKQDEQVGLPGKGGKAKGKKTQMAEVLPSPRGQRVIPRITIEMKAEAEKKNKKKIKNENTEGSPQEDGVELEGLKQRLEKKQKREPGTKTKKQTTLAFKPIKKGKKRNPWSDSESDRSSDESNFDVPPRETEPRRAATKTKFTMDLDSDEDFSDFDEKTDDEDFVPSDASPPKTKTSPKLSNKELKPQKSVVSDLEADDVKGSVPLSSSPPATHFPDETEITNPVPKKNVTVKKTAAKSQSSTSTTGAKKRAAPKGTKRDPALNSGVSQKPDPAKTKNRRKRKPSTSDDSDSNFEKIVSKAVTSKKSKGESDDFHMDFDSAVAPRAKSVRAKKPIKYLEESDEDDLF

Active and inactive are the calls of the source. The calls are words filed in the database; no cut-off is given here. A value given as a limit tells only on which side of the number the result lay.

Usually IC50 stands for the concentration that gives 50% inhibition. Turning to `O=c1c2cc(O)ccc2[nH]c2c([N+](=O)[O-])ccc(Nc3ccc(N4CCOCC4)cc3)c12`, the IC50 in the test with SW480 came out at 2.4 µM; in the test with HeLa it was 6.4 µM; in the test with HCT-116, 5.9 µM.
Take `COc1cc(Nc2ccc([N+](=O)[O-])c3[nH]c4ccc(O)cc4c(=O)c23)cc(OC)c1`: the inhibition result in test [1] is “Active”. Further, the half-inhibitory concentration (IC50) in the test on SW480, in the test on HeLa and in the test on HCT-116 was over 20 µM each time.
As for `COc1ccc2[nH]c3c([N+](=O)[O-])ccc(NCCc4cccc(C(F)(F)F)c4)c3c(=O)c2c1`, the IC50 is 12.4 µM in the test with SW480, 12.4 µM in the test on HeLa and over 20 µM in the test with HCT-116.
Take `COc1ccc(CCNc2ccc([N+](=O)[O-])c3[nH]c4ccc(F)cc4c(=O)c23)cc1OC`: the IC50 in the test with SW480 was 8.8 µM; in the test on HeLa it was 4.5 µM; in the test with HCT-116, over 20 µM.
Consider `O=c1c2cc(O)ccc2[nH]c2c([N+](=O)[O-])ccc(NCc3ccco3)c12`, for which the inhibition result in test [1] was “Active”. Further, the IC50 in the test on SW480 is 15.5 µM; in the test on HeLa it was 12.2 µM; in the test on HCT-116 it was over 20 µM.
With `O=c1c2cc(O)ccc2[nH]c2c([N+](=O)[O-])ccc(NCc3ccc(F)cc3)c12`, the IC50 in the test on SW480, with HeLa and in the test with HCT-116 was over 20 µM throughout.
As for `CCN(CC)CCNc1ccc2ncn3c4ccc(O)cc4c(=O)c1c23` [C-1311], the IC50 in the test with SW480 is 0.48 µM; with HCT-116, 0.3 µM.
In the case of `O=c1c2cc(O)ccc2[nH]c2c([N+](=O)[O-])ccc(NCc3cccs3)c12`, the inhibition result in test [1] is “inactive”. Further, the IC50 in the test on SW480, in the test with HeLa and in the test with HCT-116 was over 20 µM each time.
Take `COc1ccc(CCNc2ccc([N+](=O)[O-])c3[nH]c4ccc(O)cc4c(=O)c23)cc1OC`: the IC50 in the test on SW480, with HeLa and in the test with HCT-116 was over 20 µM in each case.
On to `COc1ccc(Nc2ccc([N+](=O)[O-])c3[nH]c4ccc(O)cc4c(=O)c23)cc1OC`, for which the inhibition entry in test [1] is “inactive”. For the same molecule, the IC50 in the test with SW480, with HeLa and in the test on HCT-116 was over 20 µM throughout.
Turning to `COc1ccc(Nc2ccc([N+](=O)[O-])c3[nH]c4ccc(O)cc4c(=O)c23)cc1`, in test [1], the inhibition result is “Active”. For the same molecule, the IC50 in the test with SW480, in the test on HeLa and with HCT-116 was over 20 µM each time.
Regarding `COc1ccc2[nH]c3c([N+](=O)[O-])ccc(NCc4cccnc4)c3c(=O)c2c1`, the IC50 with SW480, in the test with HeLa and with HCT-116 was over 20 µM throughout.
Regarding `COc1ccc2[nH]c3c([N+](=O)[O-])ccc(Nc4ccc(CN5CCCCC5)cc4)c3c(=O)c2c1`, the inhibition entry in test [1] is “Active”. The IC50 in the test on SW480 was determined as 8.8 µM; in the test with HeLa, 1.7 µM; with HCT-116 it was 5.7 µM.
As for `O=c1c2cc(O)ccc2[nH]c2c([N+](=O)[O-])ccc(NCCc3cccc(C(F)(F)F)c3)c12`, the half-maximal inhibitory concentration (IC50) with SW480 was 11.7 µM; in the test with HeLa it was 7.6 µM; in the test with HCT-116 it was over 20 µM.
For `CN1CCN(Cc2ccc(Nc3ccc([N+](=O)[O-])c4[nH]c5ccc(O)cc5c(=O)c34)cc2)CC1`, in test [1], the inhibition result is “Active”. Also, the IC50 in the test with SW480 is 0.3 µM; in the test with HeLa, 0.6 µM; with HCT-116, 0.4 µM.
The corresponding values for `CN1CCN(CCNc2ccc([N+](=O)[O-])c3[nH]c4ccc(O)cc4c(=O)c23)CC1` are “Active”, 1.2 µM, 1.2 µM and 0.7 µM.
The corresponding values for `O=c1c2cc(O)ccc2[nH]c2c([N+](=O)[O-])ccc(Nc3ccc(Cn4cncn4)cc3)c12` are “Active”, 2.3 µM, 7.6 µM and 3.9 µM.
Turning to `COc1ccc2[nH]c3c([N+](=O)[O-])ccc(Nc4ccc(N5CCOCC5)cc4)c3c(=O)c2c1`, the IC50 in the test on SW480, with HeLa and in the test on HCT-116 was over 20 µM in each case.
`COc1ccc2[nH]c3c(N)ccc(Nc4ccc(OC)c(OC)c4)c3c(=O)c2c1`: the values for the IC50 with SW480, with HeLa and with HCT-116 were 8.6 µM, 6.2 µM and 4.6 µM, respectively.
Turning to `COc1ccc(Nc2ccc(N)c3[nH]c4ccc(OC)cc4c(=O)c23)cc1`, the figures for the IC50 in the test on SW480, with HeLa and with HCT-116 were over 25 µM, over 12.5 µM and over 12.5 µM, respectively.
In the case of `COc1ccc2[nH]c3c([N+](=O)[O-])ccc(NCCc4ccc(O)c(O)c4)c3c(=O)c2c1`, the half-maximal inhibitory concentration (IC50) is 6.5 µM in the test on SW480, over 20 µM in the test with HeLa and over 20 µM in the test on HCT-116.
Regarding `COc1ccc2[nH]c3c(N)ccc(NCCc4ccc(OC)c(OC)c4)c3c(=O)c2c1`, the IC50 in the test with SW480 came to 15.6 µM; in the test on HeLa, 8.8 µM; in the test on HCT-116 it was 8.8 µM.
In the case of `COc1ccc2[nH]c3c(N)ccc(Nc4ccc(N5CCOCC5)cc4)c3c(=O)c2c1`, the IC50 in the test on SW480 was found to be 3.8 µM; in the test with HeLa, 17.5 µM; with HCT-116, 17.8 µM.
The corresponding values for `COc1ccc2[nH]c3c([N+](=O)[O-])ccc(NCCc4ccc(OC)c(OC)c4)c3c(=O)c2c1` are 19.7 µM, 12.8 µM and over 20 µM.
With `O=c1c2cc(F)ccc2[nH]c2c([N+](=O)[O-])ccc(NCc3ccc(O)cc3)c12`, the IC50 in the test on SW480 is over 20 µM; in the test on HeLa, 10.5 µM; with HCT-116, over 20 µM.
With `COc1ccc(CCNc2ccc(N)c3[nH]c4ccc(O)cc4c(=O)c23)cc1OC`, the IC50 in the test on SW480 was over 50 µM; in the test with HeLa, 17.2 µM; in the test on HCT-116, over 50 µM.
With `O=c1c2cc(O)ccc2[nH]c2c([N+](=O)[O-])ccc(NCc3ccc(O)cc3)c12`, the IC50 with SW480, in the test on HeLa and in the test with HCT-116 was over 20 µM throughout.
For the molecule `COc1ccc2[nH]c3c(N)ccc(NCCc4ccc(O)c(O)c4)c3c(=O)c2c1`, the IC50 in the test on SW480, in the test on HeLa and with HCT-116 was over 50 µM each time.
As to `COc1ccc(CCNc2ccc(N)c3[nH]c4ccc(F)cc4c(=O)c23)cc1OC`, the IC50 in the test with SW480 is 11.3 µM; with HeLa, 12.3 µM; in the test on HCT-116, 17.5 µM.
In the case of `COc1ccc2[nH]c3c([N+](=O)[O-])ccc(NCc4ccco4)c3c(=O)c2c1`, the IC50 in the test on SW480, in the test on HeLa and with HCT-116 was over 20 µM each time.
For `Nc1ccc(NCCc2cccc(C(F)(F)F)c2)c2c(=O)c3cc(O)ccc3[nH]c12`, the IC50 was over 20 µM in the test with SW480, over 20 µM with HeLa and over 50 µM in the test on HCT-116.
As for `COc1ccc2[nH]c3c(N)ccc(NCCc4cccc(C(F)(F)F)c4)c3c(=O)c2c1`, the IC50 in the test on SW480, in the test with HeLa and in the test with HCT-116 was over 20 µM throughout.
In the case of `COc1ccc2[nH]c3c([N+](=O)[O-])ccc(Nc4ccc(N5CCN(C)CC5)cc4)c3c(=O)c2c1`, the IC50 with SW480, in the test on HeLa and in the test on HCT-116 was over 20 µM in each case.
With `COc1ccc2[nH]c3c([N+](=O)[O-])ccc(NCc4ccc(O)cc4)c3c(=O)c2c1`, the IC50 in the test with SW480 is over 20 µM; in the test with HeLa it was over 20 µM; with HCT-116, 12.4 µM.
For `COc1ccc2[nH]c3c([N+](=O)[O-])ccc(NCc4cccs4)c3c(=O)c2c1`, the half-maximal inhibitory concentration (IC50) in the test with SW480, in the test on HeLa and in the test on HCT-116 was over 20 µM each time.
